Experimental data taken from the supplement of paper PMC11451515.

How the values were obtained:
Settings in all cases: 48 h
NOMO1 [1] = test: AUC of viability dose-response curve (% viability x log10 dose units); higher = less sensitive
In short: (§1)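 Viability of medium-adapted leukemia cells was measured by CellTiter-Glo One luminescence after 48 h at 37°C with library compounds in DMSO. Doses were 11 threefold steps from 47 μM to 0.79 nM, in 1536-well plates at 500 or 1000 cells/well. Signals were normalised per plate to DMSO and cell-free wells and fitted with a four-parameter log-logistic model on log10 dose. Area under the curve was integrated by trapezoidal rule, with curves exceeding full viability scaled and failed quality-control curves removed.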

P12-Ichikawa [2] = test: as above
In short: as §1

SEM cells [3] = test: as above
In short: as §1

NOMO1 [4] = test: cell viability relative to DMSO control; higher = less cytotoxic
In short: (§2)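 Library compounds in DMSO were pin-dosed in an 11-point threefold series (47 μM to 0.79 nM) onto leukemia cells in 1536-well plates (5 μl). Plates held 500 cells/well of NOMO1 or SEM or 1000 cells/well of P12-Ichikawa, each adapted for at least four passages in each medium. Luminescence was read with CellTiter-Glo One after 48 h at 37°C. Viability means the per-plate percentage relative to DMSO wells, using cell-free wells as background.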

P12-Ichikawa [5] = test: as above
In short: as §2

SEM cells [6] = test: as above
In short: as §2

O=C(CCCCCCC(=O)Nc1cccnc1)NO
AUC of viability dose-response curve
Settings | NOMO1 [1] | P12-Ichikawa [2] | SEM cells [3]
HPLM + 10% dialyzed FBS | 435 | 400 | 401
RPMI 5 mM glucose + 10% FBS | 399 | 374 | 402
RPMI 5 mM glucose + 10% dialyzed FBS | 432 | 368 | 375

cell viability [%]
Settings | NOMO1 [4] | P12-Ichikawa [5] | SEM cells [6]
HPLM + 10% dialyzed FBS, 0.000781 µM | 92.3 | 93 | 78.3
HPLM + 10% dialyzed FBS, 0.00234 µM | 108 | 99.9 | 106
HPLM + 10% dialyzed FBS, 0.00702 µM | 105 | 96.9 | 96.7
HPLM + 10% dialyzed FBS, 0.0211 µM | 101 | 96.9 | 97.2
HPLM + 10% dialyzed FBS, 0.0632 µM | 114 | 105 | 114
HPLM + 10% dialyzed FBS, 0.19 µM | 91.1 | 109 | 104
HPLM + 10% dialyzed FBS, 0.569 µM | 108 | 99.5 | 108
HPLM + 10% dialyzed FBS, 1.71 µM | 109 | 90.8 | 88.5
HPLM + 10% dialyzed FBS, 5.12 µM | 91.3 | 82.1 | 76.8
HPLM + 10% dialyzed FBS, 15.4 µM | 70.5 | 12.2 | 17.6
HPLM + 10% dialyzed FBS, 46.1 µM | 8.89 | 4.36 | 6.38
RPMI 5 mM glucose + 10% FBS, 0.000781 µM | 83.6 | 82.5 | 101
RPMI 5 mM glucose + 10% FBS, 0.00234 µM | 91.2 | 95.6 | 105
RPMI 5 mM glucose + 10% FBS, 0.00702 µM | 98 | 93.7 | 102
RPMI 5 mM glucose + 10% FBS, 0.0211 µM | 84.1 | 93.4 | 106
RPMI 5 mM glucose + 10% FBS, 0.0632 µM | 84.9 | 97.5 | 101
RPMI 5 mM glucose + 10% FBS, 0.19 µM | 91.8 | 95.4 | 115
RPMI 5 mM glucose + 10% FBS, 0.569 µM | 100 | 99.6 | 97.5
RPMI 5 mM glucose + 10% FBS, 1.71 µM | 83.6 | 85.7 | 77.2
RPMI 5 mM glucose + 10% FBS, 5.12 µM | 84.3 | 76.1 | 81.7
RPMI 5 mM glucose + 10% FBS, 15.4 µM | 72.8 | 9.59 | 11.9
RPMI 5 mM glucose + 10% FBS, 46.1 µM | 12.3 | 3.79 | 5.78
RPMI 5 mM glucose + 10% dialyzed FBS, 0.000781 µM | 101 | 86.9 | 87.8
RPMI 5 mM glucose + 10% dialyzed FBS, 0.00234 µM | 92.3 | 92.8 | 93.6
RPMI 5 mM glucose + 10% dialyzed FBS, 0.00702 µM | 93.9 | 90.7 | 89.2
RPMI 5 mM glucose + 10% dialyzed FBS, 0.0211 µM | 93.1 | 91.9 | 101
RPMI 5 mM glucose + 10% dialyzed FBS, 0.0632 µM | 101 | 94.7 | 95.5
RPMI 5 mM glucose + 10% dialyzed FBS, 0.19 µM | 102 | 95.1 | 99
RPMI 5 mM glucose + 10% dialyzed FBS, 0.569 µM | 110 | 94.3 | 105
RPMI 5 mM glucose + 10% dialyzed FBS, 1.71 µM | 85.1 | 85.2 | 81.9
RPMI 5 mM glucose + 10% dialyzed FBS, 5.12 µM | 95.4 | 73.9 | 64
RPMI 5 mM glucose + 10% dialyzed FBS, 15.4 µM | 74.1 | 10 | 13.5
RPMI 5 mM glucose + 10% dialyzed FBS, 46.1 µM | 12.7 | 3.83 | 6.39

C[C@@H]1CCN(C(=O)CC#N)C[C@@H]1N(C)c1ncnc2[nH]ccc12
AUC of viability dose-response curve
Settings | NOMO1 [1] | P12-Ichikawa [2] | SEM cells [3]
HPLM + 10% dialyzed FBS | 407 | 411 | 381
RPMI 5 mM glucose + 10% FBS | 376 | 413 | 453
RPMI 5 mM glucose + 10% dialyzed FBS | 414 | 377 | 430

cell viability [%]
Settings | NOMO1 [4] | P12-Ichikawa [5] | SEM cells [6]
HPLM + 10% dialyzed FBS, 0.000781 µM | 93.6 | 97.1 | 85
HPLM + 10% dialyzed FBS, 0.00234 µM | 81.7 | 87.1 | 92.5
HPLM + 10% dialyzed FBS, 0.00702 µM | 91.7 | 82.4 | 81.5
HPLM + 10% dialyzed FBS, 0.0211 µM | 84.4 | 91.3 | 85.7
HPLM + 10% dialyzed FBS, 0.0632 µM | 97.6 | 86.7 | 91
HPLM + 10% dialyzed FBS, 0.19 µM | 77.1 | 88.5 | 77.4
HPLM + 10% dialyzed FBS, 0.569 µM | 94.7 | 86.2 | 67.4
HPLM + 10% dialyzed FBS, 1.71 µM | 76.3 | 87.7 | 80
HPLM + 10% dialyzed FBS, 5.12 µM | 83.6 | 77.5 | 67
HPLM + 10% dialyzed FBS, 15.4 µM | 81.9 | 84 | 73.1
HPLM + 10% dialyzed FBS, 46.1 µM | 73.6 | 78.6 | 78.6
RPMI 5 mM glucose + 10% FBS, 0.000781 µM | 97.2 | 81.9 | 96.6
RPMI 5 mM glucose + 10% FBS, 0.00234 µM | 84.6 | 85.6 | 99.5
RPMI 5 mM glucose + 10% FBS, 0.00702 µM | 83.3 | 83.6 | 79.5
RPMI 5 mM glucose + 10% FBS, 0.0211 µM | 75.8 | 86.3 | 97.4
RPMI 5 mM glucose + 10% FBS, 0.0632 µM | 77.8 | 95.5 | 103
RPMI 5 mM glucose + 10% FBS, 0.19 µM | 72 | 85.2 | 104
RPMI 5 mM glucose + 10% FBS, 0.569 µM | 73.4 | 92.4 | 99.3
RPMI 5 mM glucose + 10% FBS, 1.71 µM | 71.8 | 88.2 | 98.5
RPMI 5 mM glucose + 10% FBS, 5.12 µM | 81.6 | 87.6 | 80
RPMI 5 mM glucose + 10% FBS, 15.4 µM | 80.9 | 82.1 | 90.7
RPMI 5 mM glucose + 10% FBS, 46.1 µM | 75.7 | 81.9 | 95.3
RPMI 5 mM glucose + 10% dialyzed FBS, 0.000781 µM | 89 | 81.9 | 112
RPMI 5 mM glucose + 10% dialyzed FBS, 0.00234 µM | 89.1 | 80.6 | 104
RPMI 5 mM glucose + 10% dialyzed FBS, 0.00702 µM | 84.9 | 84.7 | 77.5
RPMI 5 mM glucose + 10% dialyzed FBS, 0.0211 µM | 88.4 | 81.8 | 109
RPMI 5 mM glucose + 10% dialyzed FBS, 0.0632 µM | 87.5 | 79.4 | 105
RPMI 5 mM glucose + 10% dialyzed FBS, 0.19 µM | 80.7 | 79.4 | 92.4
RPMI 5 mM glucose + 10% dialyzed FBS, 0.569 µM | 69.3 | 78.7 | 82.1
RPMI 5 mM glucose + 10% dialyzed FBS, 1.71 µM | 101 | 76.4 | 94
RPMI 5 mM glucose + 10% dialyzed FBS, 5.12 µM | 91.9 | 78.2 | 57.9
RPMI 5 mM glucose + 10% dialyzed FBS, 15.4 µM | 88.4 | 72.1 | 83.5
RPMI 5 mM glucose + 10% dialyzed FBS, 46.1 µM | 84.7 | 73.8 | 88.4

CC(=O)N[C@@H]1[C@@H](NC(N)=N)\C=C(/O[C@H]1[C@H](O)[C@H](O)CO)C(O)=O
AUC of viability dose-response curve
Settings | NOMO1 [1] | P12-Ichikawa [2] | SEM cells [3]
HPLM + 10% dialyzed FBS | 464 | 461 | 457
RPMI 5 mM glucose + 10% FBS | 463 | 466 | 421
RPMI 5 mM glucose + 10% dialyzed FBS | 443 | 471 | 419

cell viability [%]
Settings | NOMO1 [4] | P12-Ichikawa [5] | SEM cells [6]
HPLM + 10% dialyzed FBS, 0.000781 µM | 84.9 | 92.9 | 78.4
HPLM + 10% dialyzed FBS, 0.00234 µM | 105 | 103 | 89.6
HPLM + 10% dialyzed FBS, 0.00702 µM | 116 | 106 | 98.1
HPLM + 10% dialyzed FBS, 0.0211 µM | 119 | 106 | 107
HPLM + 10% dialyzed FBS, 0.0632 µM | 127 | 116 | 107
HPLM + 10% dialyzed FBS, 0.19 µM | 119 | 116 | 123
HPLM + 10% dialyzed FBS, 0.569 µM | 122 | 117 | 40.2
HPLM + 10% dialyzed FBS, 1.71 µM | 120 | 112 | 106
HPLM + 10% dialyzed FBS, 5.12 µM | 122 | 112 | 112
HPLM + 10% dialyzed FBS, 15.4 µM | 115 | 114 | 98.6
HPLM + 10% dialyzed FBS, 46.1 µM | 101 | 113 | 95.4
RPMI 5 mM glucose + 10% FBS, 0.000781 µM | 102 | 93.9 | 80.1
RPMI 5 mM glucose + 10% FBS, 0.00234 µM | 114 | 108 | 90.1
RPMI 5 mM glucose + 10% FBS, 0.00702 µM | 106 | 109 | 125
RPMI 5 mM glucose + 10% FBS, 0.0211 µM | 111 | 113 | 98.6
RPMI 5 mM glucose + 10% FBS, 0.0632 µM | 113 | 123 | 89
RPMI 5 mM glucose + 10% FBS, 0.19 µM | 113 | 112 | 129
RPMI 5 mM glucose + 10% FBS, 0.569 µM | 118 | 105 | 49.5
RPMI 5 mM glucose + 10% FBS, 1.71 µM | 120 | 113 | 128
RPMI 5 mM glucose + 10% FBS, 5.12 µM | 111 | 117 | 136
RPMI 5 mM glucose + 10% FBS, 15.4 µM | 121 | 70.2 | 119
RPMI 5 mM glucose + 10% FBS, 46.1 µM | 113 | 118 | 110
RPMI 5 mM glucose + 10% dialyzed FBS, 0.000781 µM | 100 | 88.9 | 64.5
RPMI 5 mM glucose + 10% dialyzed FBS, 0.00234 µM | 106 | 107 | 82.9
RPMI 5 mM glucose + 10% dialyzed FBS, 0.00702 µM | 114 | 109 | 117
RPMI 5 mM glucose + 10% dialyzed FBS, 0.0211 µM | 121 | 109 | 102
RPMI 5 mM glucose + 10% dialyzed FBS, 0.0632 µM | 117 | 113 | 126
RPMI 5 mM glucose + 10% dialyzed FBS, 0.19 µM | 118 | 107 | 122
RPMI 5 mM glucose + 10% dialyzed FBS, 0.569 µM | 115 | 108 | 38.4
RPMI 5 mM glucose + 10% dialyzed FBS, 1.71 µM | 116 | 112 | 120
RPMI 5 mM glucose + 10% dialyzed FBS, 5.12 µM | 106 | 115 | 121
RPMI 5 mM glucose + 10% dialyzed FBS, 15.4 µM | 134 | 112 | 110
RPMI 5 mM glucose + 10% dialyzed FBS, 46.1 µM | 124 | 100 | 113
